In brackets after ≈: the same amount, converted by molar mass. Read-outs that look alike come from different tables or passages of the source.
Experiments:
[1] = test system: A. baumannii CIP 5377, CIP 7034, AYE, SAN, RCH; test: Antimicrobial susceptibility testing (MIC, broth microdilution, EUCAST; Example 5); type: cell-based, Acinetobacter baumannii; conditions: Acinetobacter baumannii, read-out: MIC
Text: A. baumannii CIP 5377 (ATCC® 17978): low cephalosporinase producing strain, susceptible to meropenem and amikacin, isolated in an infected patient
A. baumannii CIP 7034: low cephalosporinase producing strain, susceptible to meropenem and amikacin A. baumannii AYE ATCC® BAA1710™: extended spectrum beta-lactamase producing strain susceptible to meropenem and resistant to amikacin
A. baumannii SAN-94040 (SAN): cephalosporinase-overproducing strain, susceptible to meropenem and intermediate to amikacin and resistant to fluoroquinolones, isolated from blood cultures of an intensive care patient with nosocomial pneumonia from North Africa (Algeria).
A. baumannii RCH-69: cephalosporinase producing strain; low susceptibility to imipenem and resistant to amikacin.

A. baumannii SAN-94040 [2] = test: Mouse model of A. baumannii pneumonia, Study 1: survival; type: in vivo, Acinetobacter baumannii
Protocol: (§1) The bacterial inoculum was prepared in order to obtain a suspension containing 10^8 CFU/mL of Acinetobacter baumannii in saline.
(§2) Experimentations were performed with six-week old female C3H/HeN mice (18-20 g, Breeding Centre JANVIER (Ile saint Genest Mayenne 53)) because of their particular susceptibility to Acinetobacter baumannii and the reproducibility of the results (inbreeding in the breed). Each mouse was individually marked and housed in cages containing five animals/cage under ventilated and controlled (temperature and humidity) atmosphere.
(§3) The mice were rendered transiently neutropenic by 2 intra-peritoneal (IP) injections of 150 μL of cyclophosphamide (Endoxan® 150 mg/kg) 4 (D-4) and 3 (D-3) days before the Acinetobacter baumannii inoculation (Day 0). This transient immunosuppression was sufficient to facilitate the development of the A. baumannii pneumonia while allowing the recovery of the neutrophil influx 2 (Day 2) days after inoculation in order to avoid or limit a systemic bacterial dissemination.
(§4) Mice were anesthetized by a mixture of oxygen and isoflurane. The bacterial inoculation was performed on Day 0 by intra-tracheal installation using an endotracheal catheter (50 μl of the suspension, thus 5.106 CFU). The positioning of the catheter in the trachea (instead of in the oesophagus) was checked by a “ring test”. The bacterial count in lungs was checked for all study groups by sacrificing one mouse immediately after inoculation.
Survival observations were assessed twice daily, up to 4 days post infection. The survival rates were compared with the Chi-square test or the Fisher exact test as appropriate. The survival curves were compared by the Kaplan-Meier method.
The aim of this experiment was to assess the […], with compound (I) via intra-peritoneal route at 200 mg/kg 3 times daily (every 8 hours) for 1 day alone and in combination with meropenem at 50 mg/kg 3 times daily (every 8 hours) for 1 day or with amikacin at 18 mg/kg 3 times daily (every 8 hours) for 1 day.

A. baumannii SAN-94040 [3] = test: Mouse model of A. baumannii pneumonia, Study 2: bacterial counts in blood and tissues; type: in vivo, Acinetobacter baumannii
Protocol: as §1, §2, §3, §4
Sample time points: T0 (pre-inoculation), T24h (post inoculation), T48h and T72h.
Blood samples preparation: At each time point, three mice were sacrificed per group by cervical dislocation.
Tissue samples preparation: At each time point, three mice were sacrificed per group. Lungs, kidneys, liver and spleen were collected after the blood sampling and cervical dislocation. Tissues were wiped with a sterile gauze to remove blood contaminant outside. Tissues were then be weighed, finely ground and plated on agar for quantitative culture. Cultures were incubated at 37° C. for 18 to 24 hours.
The aim of this experiment was to assess the bacterial counts in blood, lungs, spleen, liver and kidneys of transiently neutropenic female C3H/HeN mice administered, 3 hours post-inoculation of A. baumannii SAN-94040 via intra-tracheal route, with compound (I) via intra-peritoneal route at 200 mg/kg 3 times daily (every 8 hours) for 1 day alone and in combination with meropenem at 50 mg/kg 3 times daily (every 8 hours) for 1 day or with amikacin at 18 mg/kg 3 times daily (every 8 hours) for 1 day.
All results concerning bacterial counts were expressed from Day 0 (inoculation) to 72 hours post-inoculation (Day 3). Bacterial counts on Day 3 were carried out only on surviving mice and results were more objectionable for interpretation. On Day 0, only bacterial count in lung of control mice was performed. Bacterial cell counts were determined as set out in the General Procedures.

A. baumannii isolates = test: Checkerboard testing (compound (I)/antibacterial agent interaction, FIC index); type: cell-based, Acinetobacter baumannii; conditions: Acinetobacter baumannii
Protocol: Checkerboard interaction studies were performed using 5 isolates from each of the sub-groups and time kill studies were performed using 3 isolates from each sub-group.
Checkerboards (20 isolates, 5 per sub-group) were prepared so as to contain multiple concentrations of compound (I) with different additional antibacterial agents (amikacin, gentamicin, colistin, meropenem and tobramycin) as follows:
Serial two-fold dilutions of the antimicrobial agents alone or in combination in wells of 96 well microtiter plates were inoculated with the appropriate inoculum so that each well contained approximately 4-5×10^4 CFU/ml. Plates were incubated at 35° C. for 16-20 hours. Combination concentrations were tested between 0.25×MIC and 2×MIC. Growth and sterility controls were also included in each plate.
Synergy, indifference and antagonism were calculated based upon the use of the fractional inhibitory concentration (FIC) indices as described by Pillai, Moellering & Eliopoulos (2005) whereby:
Synergism=FIC index of ≦0.5 Indifference=FIC index >1 but ≦4 Additivity >0.5 to 1 Antagonism=FIC index of >4
Checkerboard studies were carried out as described in General Procedures using twenty different A. baumannii isolates with 5 per sub-group of: susceptible, amikacin-resistant, colistin-resistant and meropenem-resistant.

[4] = Study 1, 24 h after infection, doses as E210
[5] = Study 1, 48 h after infection, doses as E210
[6] = Study 1, 72 h after infection, doses as E210
[7] = Study 1, 96 h after infection, doses as E210

`C[C@@H](O)[C@H]1C(=O)N2C(C(=O)O)=C(S[C@@H]3CN[C@H](C(=O)N(C)C)C3)[C@H](C)[C@H]12` [meropenem] was tested, and the MIC ([1]; A. baumannii AYE) was 1 µg/mL (≈ 2.61 µM), the MIC ([1]; A. baumannii CIP 5377) was 0.25 µg/mL (≈ 0.652 µM) and the MIC ([1]; A. baumannii CIP 7034) was 1 µg/mL (≈ 2.61 µM). The MIC ([1]; A. baumannii RCH) was 32 µg/mL (≈ 83.4 µM), the MIC ([1]; A. baumannii SAN) was 1 µg/mL (≈ 2.61 µM) and the “survivors (%)” value (A. baumannii SAN-94040 [2]; Study 1, 0 h after infection, doses as E210) was 100%. For the same compound, the No. of survivors (A. baumannii SAN-94040 [2]; [4]) was 14, the “survivors (%)” value (A. baumannii SAN-94040 [2]; [4]) was 100% and the No. of survivors (A. baumannii SAN-94040 [2]; [5]) was 11. For the same compound, the “survivors (%)” value (A. baumannii SAN-94040 [2]; [5]) was 79%, the No. of survivors (A. baumannii SAN-94040 [2]; [6]) was 6 and the “survivors (%)” value (A. baumannii SAN-94040 [2]; [6]) was 43%. The No. of survivors (A. baumannii SAN-94040 [2]; [7]) was 6, the “survivors (%)” value (A. baumannii SAN-94040 [2]; [7]) was 43% and the No. of survivors (A. baumannii SAN-94040 [2]; Study 1, C3H/HeN mice, 0 h after SAN-94040 infection, compound (I) 200 mg/kg, amikacin 18 mg/kg, meropenem 50 mg/kg q 8 h I.P.) was 14. For the same compound, the “efficacy compared to the control group” value (A. baumannii SAN-94040 [2]; Study 1, survival) was “significant efficacy”, the blood bacterial counts (A. baumannii SAN-94040 [3]; Study 2, 24 h) was 0 CFU/mL Blood and the lung bacterial counts (A. baumannii SAN-94040 [3]; Study 2, 24 h, compound (I) 200 mg/kg Q8h, amikacin 18 mg/kg, meropenem 50 mg/kg Q8h I.P. for 1 day) was 3.75E+04 CFU/g Lung. The blood bacterial counts (A. baumannii SAN-94040 [3]; Study 2, 48 h) was 0 CFU/mL Blood, the kidney bacterial counts (A. baumannii SAN-94040 [3]; Study 2, 48 h) was 0 CFU/g Kidneys and the liver bacterial counts (A. baumannii SAN-94040 [3]; Study 2, 48 h) was 0 CFU/g Liver. The lung bacterial counts (A. baumannii SAN-94040 [3]; Study 2, 48 h) was 5.56E+06 CFU/g Lung, the blood bacterial counts (A. baumannii SAN-94040 [3]; Study 2, 72 h) was 0 CFU/mL Blood and the kidney bacterial counts (A. baumannii SAN-94040 [3]; Study 2, 72 h) was 0 CFU/g Kidneys. For the same compound, the liver bacterial counts (A. baumannii SAN-94040 [3]; Study 2, 72 h) was 0 CFU/g Liver, the spleen bacterial counts (A. baumannii SAN-94040 [3]; Study 2, 72 h) was 0 CFU/g Spleen and the lung bacterial counts (A. baumannii SAN-94040 [3]; Study 2, 72 h, surviving mice only) was 1.00E+00 CFU/g Lung. The MIC (A. baumannii isolates; A. baumannii 441142, colistin-resistant, read-out: MIC) was 64 µg/mL, the MIC (A. baumannii isolates; A. baumannii 441160, colistin-resistant, read-out: MIC) was 64 µg/mL and the MIC (A. baumannii isolates; A. baumannii 463996, colistin-resistant) was 0.125 µg/mL. The MIC (A. baumannii isolates; A. baumannii 466936, colistin-resistant) was 128 µg/mL, the MIC (A. baumannii isolates; A. baumannii 517303, colistin-resistant, read-out: MIC) was 1 µg/mL and the MIC (A. baumannii isolates; A. baumannii 618649, meropenem-resistant, read-out: MIC) was 64 µg/mL. For the same compound, the MIC (A. baumannii isolates; A. baumannii 625917, meropenem-resistant, read-out: MIC) was 64 µg/mL, the MIC (A. baumannii isolates; A. baumannii 628760, susceptible, read-out: MIC) was 0.25 µg/mL and the MIC (A. baumannii isolates; A. baumannii 637723, amikacin-resistant, read-out: MIC) was 1 µg/mL. It also gave an MIC (A. baumannii isolates; A. baumannii 638115, amikacin-resistant, read-out: MIC) of 2 µg/mL, an MIC (A. baumannii isolates; A. baumannii 650216, meropenem-resistant, read-out: MIC) of 64 µg/mL and an MIC (A. baumannii isolates; A. baumannii 655932, amikacin-resistant, read-out: MIC) of 16 µg/mL. It also gave an MIC (A. baumannii isolates; A. baumannii 661954, amikacin-resistant, read-out: MIC) of 1 µg/mL, an MIC (A. baumannii isolates; A. baumannii 667848, meropenem-resistant, read-out: MIC) of 32 µg/mL and an MIC (A. baumannii isolates; A. baumannii 668116, susceptible, read-out: MIC) of 0.5 µg/mL. The MIC (A. baumannii isolates; A. baumannii 668239, amikacin-resistant, read-out: MIC) was 16 µg/mL, the MIC (A. baumannii isolates; A. baumannii 670348, susceptible, read-out: MIC) was 0.5 µg/mL and the MIC (A. baumannii isolates; A. baumannii 671050, meropenem-resistant, read-out: MIC) was 32 µg/mL. It also gave an MIC (A. baumannii isolates; A. baumannii 672190, susceptible, read-out: MIC) of 0.5 µg/mL and an MIC (A. baumannii isolates; A. baumannii 674340, susceptible, read-out: MIC) of 0.5 µg/mL.
